From ChEMBL document CHEMBL1145534 (2007)
Converted amounts (≈) assume the structure as drawn.

What was measured:
Assay type in all cases: functional
[1] = system: Streptococcus mitis; assay: Antimicrobial activity against viridans group Streptococcus mitis by broth microdilution method
[2] = system: Streptococcus intermedius; assay: Antimicrobial activity against viridans group Streptococcus intermedius at 0.25 ug/ml by broth microdilution method
[3] = system: Streptococcus equinus; assay: Antimicrobial activity against viridans group Streptococcus bovis by broth microdilution method
[4] = system: Streptococcus constellatus; assay: Antimicrobial activity against viridans group Streptococcus constellatus at <= 0.06 ug/ml by broth microdilution method
[5] = system: Rothia mucilaginosa; assay: Antimicrobial activity against Rothia mucilaginosa by broth microdilution method
[6] = system: Enterococcus avium; assay: Antimicrobial activity against Enterococcus avium by broth microdilution method
[7] = system: Corynebacterium amycolatum; assay: Antimicrobial activity against Corynebacterium amycolatum at <= 0.06 ug/ml by broth microdilution method
[8] = system: Bacillus sp.; assay: Antimicrobial activity against Bacillus spp. at 1 ug/ml by broth microdilution method; details: Bacillus sp. (in: firmicutes)
[9] = system: Streptococcus salivarius; assay: Antimicrobial activity against viridans group Streptococcus salivarius at 2 ug/ml by broth microdilution method
[10] = system: Corynebacterium striatum; assay: Antimicrobial activity against Corynebacterium striatum at 0.25 ug/ml by broth microdilution method
[11] = system: Aerococcus; assay: Antimicrobial activity against Aerococcus spp. at 0.12 ug/ml by broth microdilution method
[12] = system: Streptococcus gordonii; assay: Antimicrobial activity against viridans group Streptococcus gordonii at 0.5 ug/ml by broth microdilution method
[13] = system: Enterococcus durans; assay: Antimicrobial activity against Enterococcus durans at 0.5 ug/ml by broth microdilution method
[14] = system: Streptococcus mutans; assay: Antimicrobial activity against viridans group Streptococcus mutans at 0.5 ug/ml by broth microdilution method
[15] = system: Listeria monocytogenes; assay: Antimicrobial activity against Listeria monocytogenes at <= 0.06 ug/ml by broth microdilution method
[16] = system: Enterococcus raffinosus; assay: Antimicrobial activity against Enterococcus raffinosus by broth microdilution method
[17] = system: Enterococcus hirae; assay: Antimicrobial activity against Enterococcus hirae at <= 0.06 ug/ml by broth microdilution method
[18] = system: Streptococcus constellatus; assay: Antimicrobial activity against viridans group Streptococcus constellatus at 0.25 ug/ml by broth microdilution method
[19] = system: Streptococcus oralis; assay: Antimicrobial activity against viridans group Streptococcus oralis at 0.5 ug/ml by broth microdilution method
[20] = system: Enterococcus avium; assay: Antimicrobial activity against Enterococcus avium at <= 0.06 ug/ml by broth microdilution method
[21] = system: Enterococcus casseliflavus; assay: Antimicrobial activity against Enterococcus casseliflavus at 1 ug/ml by broth microdilution method
[22] = system: Corynebacterium pseudodiphtheriticum; assay: Antimicrobial activity against Corynebacterium pseudodiphtheriticum at 1 ug/ml by broth microdilution method
[23] = system: Streptococcus; assay: Antimicrobial activity against beta hemolytic Streptococci group G at 0.5 ug/ml by broth microdilution method
[24] = system: Streptococcus mutans; assay: Antimicrobial activity against viridans group Streptococcus mutans at 1 ug/ml by broth microdilution method
[25] = system: Streptococcus vestibularis; assay: Antimicrobial activity against viridans group Streptococcus vestibularis at 0.5 ug/ml by broth microdilution method
[26] = system: Streptococcus oralis; assay: Antimicrobial activity against viridans group Streptococcus oralis with G2576T rRNA mutation at 4 ug/ml by broth microdilution method
[27] = system: Enterococcus hirae; assay: Antimicrobial activity against Enterococcus hirae at 0.12 ug/ml by broth microdilution method
[28] = system: Streptococcus constellatus; assay: Antimicrobial activity against viridans group Streptococcus constellatus at 0.12 ug/ml by broth microdilution method
[29] = system: Streptococcus salivarius; assay: Antimicrobial activity against viridans group Streptococcus salivarius at 0.5 ug/ml by broth microdilution method
[30] = system: Streptococcus constellatus; assay: Antimicrobial activity against viridans group Streptococcus constellatus at 2 ug/ml by broth microdilution method
[31] = system: Streptococcus vestibularis; assay: Antimicrobial activity against viridans group Streptococcus vestibularis at <= 0.06 ug/ml by broth microdilution method
[32] = system: Micrococcus luteus; assay: Antimicrobial activity against Micrococcus luteus by broth microdilution method
[33] = system: Bacillus sp.; assay: Antimicrobial activity against Bacillus spp. at 0.25 ug/ml by broth microdilution method; details: Bacillus sp. (in: firmicutes)
[34] = system: Enterococcus casseliflavus; assay: Antimicrobial activity against Enterococcus casseliflavus at 2 ug/ml by broth microdilution method
[35] = system: Corynebacterium jeikeium; assay: Antimicrobial activity against Corynebacterium jeikeium by broth microdilution method
[36] = system: Corynebacterium sp.; assay: Antimicrobial activity against Corynebacterium spp. by broth microdilution method
[37] = system: Bacillus cereus; assay: Antimicrobial activity against Bacillus cereus by broth microdilution method
[38] = system: Enterococcus raffinosus; assay: Antimicrobial activity against Enterococcus raffinosus at 0.12 ug/ml by broth microdilution method
[39] = system: Corynebacterium pseudodiphtheriticum; assay: Antimicrobial activity against Corynebacterium pseudodiphtheriticum at 0.25 ug/ml by broth microdilution method
[40] = system: Streptococcus anginosus; assay: Antimicrobial activity against viridans group Streptococcus anginosus at 0.12 ug/ml by broth microdilution method
[41] = system: Corynebacterium pseudodiphtheriticum; assay: Antimicrobial activity against Corynebacterium pseudodiphtheriticum at 0.12 ug/ml by broth microdilution method
[42] = system: Corynebacterium sp.; assay: Antimicrobial activity against Corynebacterium spp. at <= 0.06 ug/ml by broth microdilution method
[43] = system: Enterococcus durans; assay: Antimicrobial activity against Enterococcus durans at 0.12 ug/ml by broth microdilution method
[44] = system: Corynebacterium pseudodiphtheriticum; assay: Antimicrobial activity against Corynebacterium pseudodiphtheriticum at <= 0.06 ug/ml by broth microdilution method
[45] = system: Corynebacterium jeikeium; assay: Antimicrobial activity against Corynebacterium jeikeium at 0.25 ug/ml by broth microdilution method
[46] = system: Streptococcus vestibularis; assay: Antimicrobial activity against viridans group Streptococcus vestibularis at 0.12 ug/ml by broth microdilution method
[47] = system: Bacillus sp.; assay: Antimicrobial activity against Bacillus spp. by broth microdilution method; details: Bacillus sp. (in: firmicutes)
[48] = system: Enterococcus raffinosus; assay: Antimicrobial activity against Enterococcus raffinosus at <= 0.06 ug/ml by broth microdilution method
[49] = system: Streptococcus intermedius; assay: Antimicrobial activity against viridans group Streptococcus intermedius by broth microdilution method
[50] = system: Bacillus cereus; assay: Antimicrobial activity against Bacillus cereus at 2 ug/ml by broth microdilution method
[51] = system: Streptococcus intermedius; assay: Antimicrobial activity against viridans group Streptococcus intermedius at 0.12 ug/ml by broth microdilution method
[52] = system: Micrococcus luteus; assay: Antimicrobial activity against Micrococcus luteus at 0.12 ug/ml by broth microdilution method
[53] = system: Streptococcus sanguinis; assay: Antimicrobial activity against viridans group Streptococcus sanguinis at 0.5 ug/ml by broth microdilution method
[54] = system: Streptococcus oralis; assay: Antimicrobial activity against viridans group Streptococcus oralis at <= 0.06 ug/ml by broth microdilution method
[55] = system: Enterococcus gallinarum; assay: Antimicrobial activity against Enterococcus gallinarum at <= 0.06 ug/ml by broth microdilution method

Work on CC(=O)NC[C@H]1CN(c2ccc(N3CCOCC3)c(F)c2)C(=O)O1 [LINEZOLID] yielded an MIC50 [1] of 1 µg/mL (≈ 2.96 µM), an MIC90 [1] of 1 µg/mL (≈ 2.96 µM) and an inhibition at 0.25 µg/mL [2] of 0%. For the same compound, the MIC50 [3] was 1 µg/mL (≈ 2.96 µM), the MIC90 [3] was 2 µg/mL (≈ 5.93 µM) and the Inhibition [4] was 1.1%. The MIC50 [5] was 0.5 µg/mL (≈ 1.48 µM), the MIC90 [5] was 1 µg/mL (≈ 2.96 µM) and the MIC50 [6] was 1 µg/mL (≈ 2.96 µM). It also gave an MIC90 [6] of 2 µg/mL (≈ 5.93 µM), an Inhibition [7] of 0% and an inhibition at 1 µg/mL [8] of 97.2%. For the same compound, the inhibition at 2 µg/mL [9] was 100%, the inhibition at 0.25 µg/mL [10] was 88% and the inhibition at 0.12 µg/mL [11] was 0%. For the same compound, the inhibition at 0.5 µg/mL [12] was 33.3%, the inhibition at 0.5 µg/mL [13] was 8.2% and the inhibition at 0.5 µg/mL [14] was 36.8%. For the same compound, the Inhibition [15] was 0%, the MIC50 [16] was 2 µg/mL (≈ 5.93 µM) and the MIC90 [16] was 2 µg/mL (≈ 5.93 µM). For the same compound, the Inhibition [17] was 0%, the inhibition at 0.25 µg/mL [18] was 12.4% and the inhibition at 0.5 µg/mL [19] was 34.5%. It also gave an Inhibition [20] of 0%, an inhibition at 1 µg/mL [21] of 23.1% and an inhibition at 1 µg/mL [22] of 100%. The inhibition at 0.5 µg/mL [23] was 8.2%, the inhibition at 1 µg/mL [24] was 89.5% and the inhibition at 0.5 µg/mL [25] was 36.4%. For the same compound, the inhibition at 4 µg/mL [26] was 99.3%, the inhibition at 0.12 µg/mL [27] was 0% and the inhibition at 0.12 µg/mL [28] was 3.4%. The inhibition at 0.5 µg/mL [29] was 46.2%, the inhibition at 2 µg/mL [30] was 100% and the Inhibition [31] was 0%. For the same compound, the MIC50 [32] was 0.5 µg/mL (≈ 1.48 µM), the MIC90 [32] was 1 µg/mL (≈ 2.96 µM) and the inhibition at 0.25 µg/mL [33] was 4.9%. The inhibition at 2 µg/mL [34] was 96.9%, the MIC50 [35] was 0.25 µg/mL (≈ 0.741 µM) and the MIC90 [35] was 0.5 µg/mL (≈ 1.48 µM). For the same compound, the MIC50 [36] was 0.25 µg/mL (≈ 0.741 µM), the MIC90 [36] was 0.5 µg/mL (≈ 1.48 µM) and the MIC50 [37] was 1 µg/mL (≈ 2.96 µM). It also gave an MIC90 [37] of 1 µg/mL (≈ 2.96 µM), an inhibition at 0.12 µg/mL [38] of 0% and an inhibition at 0.25 µg/mL [39] of 36.4%. The inhibition at 0.12 µg/mL [40] was 2.9%, the inhibition at 0.12 µg/mL [41] was 0% and the Inhibition [42] was 2.1%. For the same compound, the inhibition at 0.12 µg/mL [43] was 0%, the Inhibition [44] was 0% and the inhibition at 0.25 µg/mL [45] was 67.8%. For the same compound, the inhibition at 0.12 µg/mL [46] was 0%, the MIC50 [47] was 1 µg/mL (≈ 2.96 µM) and the MIC90 [47] was 1 µg/mL (≈ 2.96 µM). For the same compound, the Inhibition [48] was 0%, the MIC50 [49] was 1 µg/mL (≈ 2.96 µM) and the MIC90 [49] was 2 µg/mL (≈ 5.93 µM). The inhibition at 2 µg/mL [50] was 100%, the inhibition at 0.12 µg/mL [51] was 0% and the inhibition at 0.12 µg/mL [52] was 0%. For the same compound, the inhibition at 0.5 µg/mL [53] was 36.6%, the Inhibition [54] was 0.7% and the Inhibition [55] was 0%.
